Measured values taken from patent US5686495A, “Substituted hydrazinedicarboximidamides and methods of use thereof” (Cambridge NeuroScience, Inc., priority 1995, dated 1997).
Counter-ions that a name gives are not always drawn. Like-named read-outs stand apart in the source and are kept apart here.

Columns and labels:
[1] = system: 3H-glutamate release from rat brain synaptosomes; assay: Inhibition of K+-evoked 3H-glutamate release from synaptosomes (rapid superfusion); assay type: cell-based
Procedure: To study the release of presynaptic ^3 H-glutamate, synaptosomes from young rats were used. CD Male rats of 4 to 6 weeks (50-75 g) were used for the preparation of synaptosomes. Rats were killed by decapitation with guillotine and the skull bone was opened in the center with the pointed blade of dissection scissors. The bone is then peeled away with a bone cutter and the brain is pried with a micro spatula. The cerebellum is removed and the rest of the brain is placed in 35 ml of 0.32M Sucrose solution and homogenized in a Thomas glass teflon homogenizer C at the maximum power setting (about 450 rpm) with 16 strokes. The pestle is rinsed with 5 ml of sucrose solution and added to the homogenate. The homogenate is centrifuged for 10 min at 3500 rpm (1500 g) in a SS-34 rotor in Sorvall RC-5B. The resulting pellet (P1) is discarded and the supernatant (S1) is recentrifuged for 20 min at 8700 rpm (8500 g). The supernatant (S2) is discarded and the pellet (P2) is resuspended in 5 ml of 0.32M sucrose and hand homogenized with 4 strokes (Thomas C) and the volume was made up to 8 ml. This homogenate was layered on 20 ml of 0.8M sucrose solution in two centrifuge tubes and spun for 25 minutes at 8700 rpm (8500 g). At the end of this spin, most of the myelin stays at the interphase of 0.32M and 0.8M sucrose and mitochondria pellet as a brown pellet. The synaptosomes are dispersed in the 0.8M sucrose. Using a 10 ml pipette, the 0.8M sucrose layer is collected (without disturbing the top myelin layer or the pellet) and diluted slowly with an equal volume of chilled basal buffer, while stirring gently with a Pasteur pipette. This diluted solution is centrifuged for 10 min at 10,000 rpm (12,000 g) and the pellet is resuspended in 1.5 ml of basal buffer and hand-homogenized in a Wheaton glass-glass 7 ml homogenizer with 8 strokes.
The synaptosomal homogenate is diluted 1 ml to 10 ml with basal buffer. This dilution gives a protein concentration of 500 to 600 μg/ml. One hundred μl of this diluted prep with 50-60 μg of protein is used for each superfusion event. […] The diluted synaptosomal solution was kept on ice until the end of the experiment.
^3 H-glutamate (purchased from NEN) is stored in the refrigerator. Pipette 6 μl ([…]; 40 to 55 Ci/mmol) into a disposable test tube. Add 100 μl of diluted prep and mix gently on vortex and incubate at 30° C. for 10 min. ^3 H-glutamate is taken up by sodium-coupledglutamate transporter present in synaptosomal membranes. After 10 min, dilute the incubation mixture with 690 μl of basal buffer. This solution is then transferred in Tygon tubing that is connected to the synaptosome loading chamber. Using a syringe filler with air, the solution is forced through the Millipore SC--GF/F--Millipore SC filter sandwich. These filters retain the synaptosomes and the solution flows through.
An important component of the superfusion setup is the custom made stainless steel "General Valve" three-valve solenoid operated superfusion chamber with an outlet for the effluent. The three inlets are connected to stainless steel buffer reservoirs that contain (1) wash buffer, (2) control buffer and (3) experimental buffer which are kept under 40 psi of nitrogen gas through teflon tubing connections. The superfusion is controlled through a menu-driven program on an Apple IIe computer. See Turner, J. T. et al., Anal. Biochem. 178:8-16 (1989), and U.S. Pat. No. 4,891,185, the disclosures of which are fully incorporated by reference herein.
The superfusion chamber has a teflon bushing and a stainless steel washer fixed with the flat surface facing the filters. A GF/B filter disc is placed first in the chamber to eliminate the switching related artifacts. The synaptosome loaded sandwich is then placed facing the synaptosomes into the flow followed by RA filter, stainless steel screen and a washer with the flat side facing the screen.

[2] = system: potassium-stimulated 45Ca uptake of synaptosomes; assay: Potassium-stimulated 45Ca uptake into synaptosomes; assay type: cell-based, rat; details: Rattus norvegicus; for inhibition at 10 µM: read-out: Inhibition of 45Ca Uptake, % Inhibition @ 10 uM (SEM)
Procedure: Several compounds were also tested to determine whether the Ca^2+ dependent and independent components of glutamate release are related to the blockage of ^45 Ca uptake. Calcium uptake is one step in the cascade of events which occur in neuronal cell death from ischemia. See Bassaclough and Leach, Current Patents Ltd., 2-27. The Ca-flux protocol is as follows. Rat brain synaptosomes were prepared according to Hajos, Brain Res. 93:485 (1975). Synaptosomes were suspended in low potassium "LK" buffer (containing 3 mM KCl) at 2 mg/ml. […] After 5 seconds, the ^45 Ca flux was stopped with 0.9 ml quench solution (LK+10 mM EGTA). The solution was filtered under vacuum and the filters washed with 15 ml of quench buffer. The effect of drug is expressed as % inhibition (or block) of control potassium-stimulated ^45 Ca influx. This method is an adaptation of the method disclosed by Nachsen and Blaustein, J. Physiol. 361:251-268 (1985).

[3] = system: hippocampal slices (Schaffer collateral synaptic potentials); assay: Hippocampal slice electrophysiology of excitatory synaptic transmission (field EPSP, population spikes); set-up: species or system Sprague-Dawley rats
Procedure: Transverse sections of hippocampus were obtained from 4-6 week old Sprague-Dawley rats and maintained under standard conditions. […] Extracellular excitatory post synaptic potentials (EPSP's) were recorded by placing a saline-filled glass microelectrode in either the stratum radiatum or stratum lacunosum. Population spikes were recorded by placing an electrode in the stratum pyramidole.

[4] = Rattus norvegicus, read-out: relative level of glutamate release
[5] = Rattus norvegicus, read-out: Inhibition of Glutamate Release (Persistent Component), % Inhibition @ 10 uM
[6] = read-out: Inhibition of 45Ca Uptake, IC50

Compound `CCc1cccc(N(C)C(=N)Nc2cccc3ccccc23)c1` [N-(1-naphthyl)-N'-(m-ethylphenyl)-N'-methylguanidine] has an activity at 30 µM ([1]; Rattus norvegicus; 30 μM; Control = 100; K+ depolarization; read-out: relative level of glutamate release) of 76% and an activity at 100 µM ([1]; Rattus norvegicus; 100 μM; Control = 100; K+ depolarization; read-out: relative level of glutamate release) of 21%.
`N=C(Nc1ccccc1I)NC1C2CC3CC(C2)CC1C3` (centres unmarked) [N-(adamantan-2-yl)-N'-(2-iodophenyl)guanidine] was tested, and the activity at 30 µM [1, 4] was 74%.
`N=C(Nc1cccc2ccccc12)Nc1cccc2ccccc12` [N,N'-di-(1-naphthyl)guanidine] was tested, and the inhibition at 10 µM [1, 5] was 31%, the activity at 30 µM [1, 4] was 19% and the activity at 100 µM [1, 4] was 29%. The inhibition at 10 µM [2] was 27% and the IC50 [2, 6] was 23.6 ± 10 µM.
In the case of `N=C(Nc1ccc2c3c(cccc13)CC2)NC1C2CC3CC(C2)CC1C3` (centres unmarked) [N-(Adamantan-2-yl)-N'-(5-acenaphthyl)guanidine], the inhibition at 10 µM [1, 5] is reported as 63%, the IC50 ([1]; Rattus norvegicus; read-out: Inhibition of Glutamate Release (Persistent Component), IC50) is reported as 5 µM and the inhibition at 10 µM [2] is reported as 69%. It also gave an IC50 [2, 6] of 4.8 µM.
For `Cc1ccccc1NC(=N)Nc1ccccc1C` [N,N'-di-(o-tolyl)guanidine], the activity at 100 µM [1, 4] was 91%.
In the case of `Cc1ccccc1NC(=N)NC12CC3CC(CC(C3)C1)C2` [N-(adamantan-1-yl)-N'-(2-methylphenyl)guanidine], the activity at 30 µM [1, 4] is reported as 52% and the activity at 100 µM [1, 4] is reported as 45%.
`Cc1ccccc1NC(=N)NC1CCCCC1` [N-cyclohexyl-N'-(2-methylphenyl)guanidine] showed an activity at 30 µM [1, 4] of 100%.
For `N=C(Nc1ccccc1I)Nc1cccc2ccccc12` [N-(α-naphthyl)-N'-(2-iodophenyl)guanidine], the activity at 30 µM [1, 4] was 77%.
Compound `N=C(Nc1ccccc1I)NC12CC3CC(CC(C3)C1)C2` [N-(adamantan-1-yl)-N'-(2-iodophenyl)guanidine] has an activity at 30 µM [1, 4] of 39%.
`Cc1ccccc1NC(=N)NC1C2CC3CC(C2)CC1C3` (centres unmarked) [N-(adamantan-2-yl)-N'-(2-methylphenyl)guanidine] was tested, and the activity at 30 µM [1, 4] was 100%.
`N=C(Nc1ccccc1I)N[C@H]1C[C@H]2CC[C@@H]1C2` (relative stereo) [N-((±)-endo-2-norbornyl)-N' (2-iodophenyl)guanidine] showed an activity at 30 µM [1, 4] of 77%.
Work on `N=C(Nc1ccc(O)c2ccccc12)Nc1ccc2c3c(cccc13)CC2` [N-(5-acenaphthyl)-N'-(4-hydroxynaphthyl)guanidine] yielded an inhibition at 10 µM [1, 5] of 25% and an inhibition at 10 µM [2] of 35%.
`N=C(NC1CCCCC1)NC12CC3CC(CC(C3)C1)C2` [N-(adamantan-1-yl)-N'-cyclohexylguanidine] gave an activity at 30 µM [1, 4] of 120%.
Work on `N=C(Nc1ccccc1I)Nc1ccccc1I` [N,N'-di-(2-iodophenyl)guanidine] yielded an activity at 100 µM [1, 4] of 61%.
`CC(C)c1ccccc1NC(=N)Nc1cccc2ccccc12` [N-(1-naphthyl)-N'-(o-isopropylphenyl)guanidine] gave an activity at 30 µM [1, 4] of 100%.
`CCc1cccc(NC(=N)N(C)c2cccc(CC)c2)c1` [N,N'-di-(3-ethylphenyl)-N-methylguanidine] showed an activity at 30 µM [1, 4] of 88%.
`N=C(Nc1ccc(F)c2ccccc12)Nc1ccc2c3c(cccc13)CC2` [N-(3- and 5-Acenaphthyl)-N'-(4-Fluoronaphthyl)-Guanidine.HCl] showed an inhibition at 10 µM [1, 5] of 85%, an IC50 ([1]; Rattus norvegicus, read-out: Inhibition of Glutamate Release (Persistent Component), IC50) of less than 5 µM and an inhibition at 10 µM [2] of 47%.
Work on `CCc1cccc(NC(=N)Nc2cccc3ccccc23)c1` [N-(3-ethylphenyl)-N'-(1-naphthyl)guanidine] yielded an activity at 30 µM [1, 4] of 59%.
Compound `Cc1ccccc1CNCc1ccccc1C` [Di-(o-methyl)benzyl)amine] has an activity at 30 µM [1, 4] of 100%.
In the case of `C1CCC(N=C(NNC(=NC2CCCCC2)NC2CCCCC2)NC2CCCCC2)CC1` [N,N',N",N"'-Tetracyclohexyl-Hydrazinedicarboximidamide], the inhibition at 10 µM [1, 5] is reported as 67%, the activity at 30 µM [1, 4] is reported as 51% and the inhibition at 10 µM [2] is reported as 74%. It also gave an IC50 ([2]; FIG. 6 curve fits, read-out: IC50, inhibition of potassium-stimulated Ca uptake of synaptosomes (FIG. 6)) of 3.3 µM and an IC50 [2, 6] of 3 µM.
For `Nc1ncnc2c1ncn2[C@@H]1O[C@H](CO)[C@@H](O)[C@H]1O` [adenosine, reference compound], the inhibition at 1000 µM ([3]; Rattus norvegicus, 1 mM, bath application, read-out: reduction of field EPSP amplitude) was 90%, the “effect on field EPSP” value ([3]; bath application) was “almost completely eliminated field EPSP's” and the “effect on population spikes” value ([3]; bath application) was “totally blocked”. For the same compound, the reversibility of effect ([3]; following washout) was “fully reversible following washout”.
`CC(C)c1ccccc1NC(=N)N(C)c1cccc2ccccc12` [N-(1-naphthyl)-N-methyl-N'-(o-isopropylphenyl)guanidine] was tested, and the activity at 30 µM [1, 4] was 95%.
